Experimental data as given in patent US20230286973A1, “PROTEIN SECRETION INHIBITORS” (KEZAR LIFE SCIENCES, priority 2020, published 2023).
Like-named read-outs stand apart in the source and are kept apart here.

Tests used:
[1] = system: PD1-ss+10aa/Gaussia Luciferase; assay: Dox-Induced PD1-ss-Gluc Assay; assay type: cell-based; settings: 24 hr Dox induction, 293FRT/TO cells, read-out: 24 hr Dox Inducible PD1ssGluc 293FRT/TO: Mean IC50
Procedure, shortened: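 Stable Flp-In 293 T-REx cells carried a doxycycline-inducible construct of Gaussia luciferase fused to the PD1 signal sequence plus 10 amino acids. Cells were plated the day before, then treated with compound dilutions in DMSO/media containing doxycycline at 37 °C, 5% CO2.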

[2] = system: TNFα-FL/Gaussia Luciferase; assay: Dox Induced TNFα-FL-Gluc Assay; assay type: cell-based; settings: for IC50: 24 hr Dox induction, 293FRT/TO cells, read-out: 24 hr Dox Inducible TNFaFLGluc 293FRT/TO: Mean IC50; for 24 hr Dox Inducible TNFaFLGluc 293FRT/TO: TNF/PD1: ratio of TNFaFLGluc IC50 to PD1ssGluc IC50
Procedure, shortened: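 Flp-In 293 T-REx cells stably expressing full-length TNFα (aa 1-233) fused at its C-terminus to Gaussia luciferase under tetracycline-regulated control were plated the day before assay. Compound dilutions in DMSO/media containing doxycycline were added and incubated at 37 °C, 5% CO2. Unspecified stereochemistry denotes stereoisomer mixtures.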

[3] = system: HER3-ss+4aa/Gaussia Luciferase; assay: Dox-Induced Her3-ss-Gluc Assay; assay type: cell-based; settings: 24 hr Dox induction, 293FRT/TO cells, read-out: 24 hr Dox Inducible Her3(ss + 4)Gluc 293FRT/TO: Mean IC50
Procedure, shortened: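 Stable Flp-In 293 T-REx line expressing Gaussia luciferase fused to the HER3 signal sequence plus 4 amino acids under tetracycline-regulated (T-REx) control. Cells plated the day before, then treated with compound dilutions in DMSO/media containing doxycycline and incubated at 37° C., 5% CO2.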

[4] = system: IL-2-FL/Gaussia Luciferase; assay: Dox Induced IL2-FL-Gluc Assay; assay type: cell-based; settings: for IC50: 24 hr Dox induction, 293FRT/TO cells, read-out: 24 hr Dox Inducible IL2FLGluc 293FRT/TO: Mean IC50; for 24 hr Dox Inducible IL2FLGluc 293FRT/TO: IL2/PD1: ratio of IL2FLGluc IC50 to PD1ssGluc IC50
Procedure, shortened: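 Flp-In 293 T-REx cells stably carrying doxycycline-inducible full-length IL-2 (aa 1-153) fused at its C-terminus to Gaussia luciferase, selected with hygromycin and blasticidin. Cells were plated the day before, then treated with compounds in DMSO/media containing doxycycline at 37° C, 5% CO2.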

[5] = system: multiple myeloma cell line NCI-H929; assay: H929 Cell Viability Assay; assay type: cell-based, human; settings: Homo sapiens, NCI-H929, 48 h, NCI-H929 cells, Celltiter-Glo
Procedure, shortened: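 NCI-H929 cells, resuspended in RPMI 1640 with 10% FBS and 2 mM glutamine, were treated with compound dilutions in DMSO/media and incubated 48 hours at 37° C, 5% CO2. Viability was read by CellTiter-Glo luminescence. Compounds drawn without stereochemistry were tested as stereoisomer mixtures.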

[6] = system: multiple myeloma cell line U266B1; assay: U266 Cell Viability Assay; assay type: cell-based, human; settings: Homo sapiens, U-266, 48 h, U266B1 cells, Celltiter-Glo
Procedure, shortened: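 Cells grown in RPMI 1640 with 10% FBS, 2 mM glutamine and penicillin/streptomycin were exposed to compound dilutions in DMSO/media for 48 hours at 37° C., 5% CO2. Viability was read by CellTiter-Glo luminescence. Undefined stereocentres mean data for stereoisomer mixtures.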

[7] = Liver Microsome Stability Assay (rat); settings: rat liver microsomes, with NADPH, 1.0 uM compound
Method: (§1) Stability of a compound was assessed in the presence of liver microsomes from various sources—mouse, rat, monkey and human liver microsomes. 1.0 uM compound, 0.4% DMSO in 0.1 M Potassium Phosphate with 1.0 mg/mL liver microsomes, were incubated at 37° C. with or without 1 mM NADPH. The samples were quenched at 0, and 30 minutes.

[8] = Liver Microsome Stability Assay (mouse); settings: mouse liver microsomes, with NADPH, 1.0 uM compound
Method: as §1

[9] = Liver Microsome Stability Assay (human); settings: human liver microsomes, with NADPH, 1.0 uM compound
Method: as §1

[10] = Liver Microsome Stability Assay (monkey); settings: monkey liver microsomes, with NADPH, 1.0 uM compound
Method: as §1

[11] = '<=>' given where both are I.A.

| SMILES | IC50 [1] | IC50 [2] | 24 hr Dox Inducible TNFaFLGluc 293FRT/TO: TNF/PD1 [2] | IC50 [3] | IC50 [4] | 24 hr Dox Inducible IL2FLGluc 293FRT/TO: IL2/PD1 [4] | EC50 [5] | EC50 [6] | Liver Microsome Stability (Multiple Species): Rat - % Remaining after 30 min w/NADPH [7] | Liver Microsome Stability (Multiple Species): Mouse - % Remaining after 30 min w/NADPH [8] | Liver Microsome Stability (Multiple Species): Human - % Remaining after 30 min w/NADPH [9] | Liver Microsome Stability (Multiple Species): Monkey - % Remaining after 30 min w/NADPH [10] | IC50 ([1]; mean) | IC50 ([2]; mean) | 24 hr Dox Inducible TNFaFLGluc 293FRT/TO: TNF/PD1 [2, 11] | IC50 ([3]; mean) | IC50 ([4]; mean) | 24 hr Dox Inducible IL2FLGluc 293FRT/TO: IL2/PD1 [4, 11] |
| --- | --- | --- | --- | --- | --- | --- | --- | --- | --- | --- | --- | --- | --- | --- | --- | --- | --- | --- |
| CCn1cnc(/C=C/c2csc(NC(=O)c3cccn3Cc3ccncc3)n2)c1 [Compound B69, (E)-N-(4-(2-(1-ethyl-1H-imidazol-4-yl)vinyl)thiazol-2-yl)-1-(pyridin-4-ylmethyl)-1H-pyrrole-2-carboxamide] | 0.119 µM | > 25 µM | >209 | > 25 µM | > 25 µM | >210 | > 25 µM | > 25 µM | 0.28% | 0.32% | 0.01% | 0.04% |  |  |  |  |  |  |
| O=C(Nc1nc([C@H]2CCCN2c2ccccc2)cs1)c1cccn1Cc1cccc(Br)c1 [Compound C121, (R)-1-(3-bromobenzyl)-N-(4-(1-phenylpyrrolidin-2-yl)thiazol-2-yl)-1H-pyrrole-2-carboxamide] |  |  |  |  |  |  | > 25 µM | > 25 µM | 50.2% | 52.1% | 64.9% | 44.2% | 2.31 µM | > 25 µM | >10.8 | 1.21 µM | 1.33 µM | 0.58 |
| O=C(Nc1nc([C@H]2CCN(c3ccccn3)C2)cs1)c1cccn1Cc1ccncc1 [Compound E44, (S)-N-(4-(1-(pyridin-2-yl)pyrrolidin-3-yl)thiazol-2-yl)-1-(pyridin-4-ylmethyl)-1H-pyrrole-2-carboxamide] |  |  |  |  |  |  | 22.9 µM | > 25 µM | 0.72% | 0.24% | 0.5% | 0.59% | 0.453 µM | 11.6 µM | 25.5 | 1.32 µM | 2.72 µM | 6 |
| COCCOc1ccc(N2CCC[C@@H]2c2csc(NC(=O)c3cccn3Cc3ccnc(F)c3)n2)cc1 [Compound A127, (R)-1-((2-fluoropyridin-4-yl)methyl)-N-(4-(1-(4-(2-methoxyethoxy)phenyl)pyrrolidin-2-yl)thiazol-2-yl)-1H-pyrrole-2-carboxamide] | 0.00565 µM | 0.107 µM | 19 | 0.0108 µM | 0.0101 µM | 1.8 | 0.278 µM | > 25 µM | 0.26% | 3.95% | 30.6% | 24.4% |  |  |  |  |  |  |
| O=C(Nc1nc(/C=C/C2CN(S(=O)(=O)c3ccccc3)CCO2)cs1)c1cccn1Cc1ccncc1 (stereo not drawn) [Compound B9, (E)-N-(4-(2-(4-(phenylsulfonyl)morpholin-2-yl)vinyl)thiazol-2-yl)-1-(pyridin-4-ylmethyl)-1H-pyrrole-2-carboxamide] | 0.91 µM | > 25 µM | >27.5 | 1.61 µM | 1.85 µM | 2 | 15.2 µM | 10.4 µM | 3.44% | 0.31% | 0.41% | 0.17% |  |  |  |  |  |  |
| Cc1cccc(Cn2cccc2C(=O)Nc2nc([C@H]3CCCN3c3ccccc3)cs2)c1 [Compound C120, (R)-1-(3-methylbenzyl)-N-(4-(1-phenylpyrrolidin-2-yl)thiazol-2-yl)-1H-pyrrole-2-carboxamide] |  |  |  |  |  |  | > 25 µM | > 25 µM | 36.8% | 38% | 62.8% | 51.1% | 4.42 µM | > 25 µM | >5.66 | 1.83 µM | 2.06 µM | 0.47 |
| O=C(Nc1nc([C@H]2CCCN2c2ccc(C(F)(F)F)cc2)cs1)c1cccn1CC1CCOCC1 [Compound C91, (R)-1-((tetrahydro-2H-pyran-4-yl)methyl)-N-(4-(1-(4-(trifluoromethyl)phenyl)pyrrolidin-2-yl)thiazol-2-yl)-1H-pyrrole-2-carboxamide] |  |  |  |  |  |  | 4.21 µM | > 25 µM | 41.8% | 88.3% | 67.8% | 28.2% | 0.0934 µM | 1.24 µM | 13.3 | 0.127 µM | 0.345 µM | 3.7 |
| CC(=O)N1CCC(Oc2ccc(N3CCC[C@@H]3c3csc(NC(=O)c4cccn4Cc4ccnc(F)c4)n3)c(F)c2)CC1 [Compound A100, (R)-N-(4-(1-(4-((1-acetylpiperidin-4-yl)oxy)-2-fluorophenyl)pyrrolidin-2-yl)thiazol-2-yl)-1-((2-fluoropyridin-4-yl)methyl)-1H-pyrrole-2-carboxamide] | 0.0228 µM | 0.195 µM | 8.57 | 0.032 µM | 0.0342 µM | 1.5 | 0.443 µM | > 25 µM | 14.8% | 3.12% | 3.16% | 0.24% |  |  |  |  |  |  |
| O=C(Nc1nc(/C=C/c2ncco2)cs1)c1cccn1Cc1ccncc1 [Compound B34, (E)-N-(4-(2-(oxazol-2-yl)vinyl)thiazol-2-yl)-1-(pyridin-4-ylmethyl)-1H-pyrrole-2-carboxamide] | 0.778 µM | > 25 µM | >32.1 | > 25 µM | > 25 µM | >32 | > 25 µM | > 25 µM | 0.87% | 0.97% | 0.75% | 1.77% |  |  |  |  |  |  |
